Data from PubChem BioAssay (NCI).
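Five compound concentrations were applied to cells in 96-well plates for 48 hours; endpoints were derived by simple linear interpolation of the resulting dose-response curve. Abbreviation: GI50, concentration required for 50% inhibition of growth. TGI is the concentration that stops growth completely.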

What was measured:
Experiment in all cases: NCI tumour cell line growth inhibition, 48 h
KM20L2 colon = test system: KM20L2 colon
LXFL 529 NSCLC = test system: LXFL 529 NSCLC
RXF-631 renal = test system: RXF-631 renal
XF 498 CNS = test system: XF 498 CNS
DMS 273 small cell lung = test system: DMS 273 small cell lung
M19-MEL melanoma = test system: M19-MEL melanoma
P388 leukemia = test system: P388 leukemia
P388/ADR leukemia = test system: P388/ADR leukemia
SN12K1 renal = test system: SN12K1 renal

| Compound | TGI (KM20L2 colon) [µM] | TGI (LXFL 529 NSCLC) [µM] | TGI (RXF-631 renal) [µM] | TGI (XF 498 CNS) [µM] | TGI (DMS 273 small cell lung) [µM] | TGI (M19-MEL melanoma) [µM] | TGI (P388 leukemia) [µM] | TGI (P388/ADR leukemia) [µM] | TGI (SN12K1 renal) [µM] | GI50 (XF 498 CNS) [µM] |
| --- | --- | --- | --- | --- | --- | --- | --- | --- | --- | --- |
| CCOC(=O)/C(C1=N[C@H](C(=O)OCC)CS1)=C(\O)c1ccccc1 | > 100 | > 100 | > 100 | > 100 |  |  |  |  |  |  |
| O=P1(N(CCCl)CCCl)NCCCO1 (centres undefined) | > 250 | > 250 | > 250 | 180 | > 250 | > 250 | > 250 | > 229 | > 250 |  |
| COc1ccccc1NC(=O)CSC(N)=O | > 100 |  |  | 83.6 | > 100 | > 100 |  |  |  |  |
| Cc1ccc(Cl)c2c(=O)cc(-c3ccccc3)[nH]c12 |  | > 100 |  |  | > 100 | > 100 |  |  |  |  |
| O=C(NCCNCCO)N/N=C/c1ccccc1 |  | > 100 |  | > 100 | > 100 |  |  |  |  |  |
| Cc1cccc(=O)c([O-])c1.Cc1cccc(=O)c([O-])c1.Cc1cccc(=O)c([O-])c1.Cc1cccc(=O)c([O-])c1.[Th+4] | > 100 | > 100 |  | 64.9 | 33 | 61.8 |  |  |  | 23.3 |
